Our source for the IC50 and EC50 values is patent publication US11142515B2, “Pyrazolyl-ureas as kinase inhibitors” (RESPIVERT LIMITED, priority 2014, dated 2021).

Test [1] deals with T1, p38 MAPKα isoform (MAPK14) (Homo sapiens, UniProt Q16539).
T1 construct: purchased Life Technologies
The test is described as follows: p38 MAPKα enzyme inhibition (Z-LYTE FRET). It counts as biochemical. To be noted: Table 2A; read-out: IC50 Values for Enzyme Inhibition p38 MAPKα. The gist of the method:
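Activity was measured indirectly as phosphorylation of a MAPKAP-K2-derived FRET peptide. Enzyme (added at 40 ng/mL) was preincubated 2 h at RT with compound (added solutions 40–0.0012 μg/mL).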

Another test concerns the target T2, GSK 3α enzyme isoform (Homo sapiens, UniProt P49840).
T2 construct: purchased Life Technologies
The test is described as follows: GSK 3α enzyme inhibition (Z-LYTE FRET). It counts as biochemical. To be noted: Table 2A; read-out: IC50 Values for Enzyme Inhibition GSK3α. Here is the method: The enzyme inhibitory activities of compounds disclosed herein were determined by FRET using synthetic peptides labelled with both donor and acceptor fluorophores (Z-LYTE, Life Technologies, Paisley, UK).
The GSK3a protein (500 ng/mL, 2.5 μL) was incubated with the test compound (2.5 μL at either 40 μg/mL, 12 μg/mL, 4 μg/mL, 1.2 μg/mL, 0.4 μg/mL, 0.12 μg/mL, 0.04 μg/mL, 0.012 μg/mL, 0.004 μg/mL or 0.0012 μg/mL) for 2 h at RT. The FRET peptide (8 μM, 2.5 μL), which is a phosphorylation target for GSK3α, and ATP (40 μM, 2.5 μL) was then added to the enzyme/compound mixture and the resulting mixture incubated for 1 h at RT. Development reagent (protease, 5 μL) was added for 1 h prior to detection in a fluorescence microplate reader (EnVision, Perkin Elmer).
In all cases, the site-specific protease cleaves non-phosphorylated peptide only and eliminates the FRET signal. Phosphorylation levels of each reaction were calculated using the ratio of coumarin emission (donor) over fluorescein emission (acceptor), for which low ratios indicate high phosphorylation and high ratios indicate low phosphorylation levels.

The test system of test [2] is IL-8 release in d-U937 cells. The test is described as follows: LPS-induced IL-8 release in d-U937 cells. The format is cell-based. To be noted: Homo sapiens, dU937, LPS 0.1 μg/mL 4 h. Here is the method:
(§1) U937 cells, a human monocytic cell line, were differentiated into macrophage-type cells by incubation with PMA (100-200 ng/mL) for 48 to 72 h. Cells were pre-incubated with final […] concentrations of test compound for 2 h and were then stimulated with LPS (0.1 μg/mL; from E. coli: O111:B4, Sigma) for 4 h. The supernatant was collected for determination of TNFα and IL-8 concentrations by sandwich ELISA (Duo-set, R&D systems). […] The relative 50% effective concentration (REC50) was determined from the resultant concentration-response curve. The inhibition of IL-8 production was calculated at each concentration of test compound by comparison with vehicle control.

Test [3] relates to TNFα release in d-U937 cells. The test is described as follows: LPS-induced TNFα release in d-U937 cells. Also: relative to 10 µg/mL BIRB-796. It counts as cell-based. To be noted: Homo sapiens, dU937; read-out: LPS Induced Release TNFα REC50 (dU937). Here is the method: as §1

T2 sequence (P49840 whole entry, canonical isoform): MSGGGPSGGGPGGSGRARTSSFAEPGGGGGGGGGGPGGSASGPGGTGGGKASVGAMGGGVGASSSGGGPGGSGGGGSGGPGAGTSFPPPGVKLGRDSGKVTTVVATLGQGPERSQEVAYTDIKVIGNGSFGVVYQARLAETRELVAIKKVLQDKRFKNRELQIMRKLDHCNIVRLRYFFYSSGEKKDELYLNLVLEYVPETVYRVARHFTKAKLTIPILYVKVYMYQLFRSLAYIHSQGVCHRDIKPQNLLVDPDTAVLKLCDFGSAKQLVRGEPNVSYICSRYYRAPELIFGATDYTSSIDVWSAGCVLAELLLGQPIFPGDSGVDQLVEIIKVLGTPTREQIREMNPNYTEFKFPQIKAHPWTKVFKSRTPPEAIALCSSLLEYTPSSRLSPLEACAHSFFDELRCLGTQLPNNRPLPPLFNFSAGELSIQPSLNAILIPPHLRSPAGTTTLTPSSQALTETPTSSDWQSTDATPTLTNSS
T1 sequence (Q16539 whole entry, canonical isoform): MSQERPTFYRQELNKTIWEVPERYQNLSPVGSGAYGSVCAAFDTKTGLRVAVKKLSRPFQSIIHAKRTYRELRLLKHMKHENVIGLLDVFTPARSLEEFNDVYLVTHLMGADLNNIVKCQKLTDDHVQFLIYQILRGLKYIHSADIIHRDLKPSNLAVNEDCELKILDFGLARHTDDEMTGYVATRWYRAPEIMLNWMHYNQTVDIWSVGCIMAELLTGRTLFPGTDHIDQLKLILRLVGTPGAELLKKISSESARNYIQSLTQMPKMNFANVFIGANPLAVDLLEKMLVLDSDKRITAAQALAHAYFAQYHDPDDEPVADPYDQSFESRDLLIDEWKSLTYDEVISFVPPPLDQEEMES

Usually IC50 stands for the point on the concentration scale where inhibition reaches its midpoint. `Cc1cc(-n2nc(C(C)(C)C)cc2NC(=O)Nc2ccc(OCc3ccnc(Nc4cnccn4)c3)c3ccccc23)cs1` (single isomer, unassigned) [Example 31]: the figures for the IC50 (in test [1]; at GSK 3α enzyme isoform; in test [2]) were 0.004 µM, 11.3 µM and 0.0334 µM, respectively. The EC50 in test [3] was 0.001 µM.

As for `COCCNC(=O)c1cnc(Nc2cc(COc3ccc(NC(=O)Nc4cc(C(C)(C)C)nn4-c4ccc(C)cc4)c4ccccc34)ccn2)cn1` [Example 3], the IC50 in test [1] was 0.009 µM; at GSK 3α enzyme isoform, above 14.3 µM; in test [2] it was 0.0088 µM. For the same molecule, the EC50 in test [3] came out at 0.0055 µM.

Consider `Cc1ccc(-n2nc(C(C)(C)C)cc2NC(=O)Nc2ccc(OCc3ccnc(Nc4cnc(C)c(C)n4)c3)c3ccccc23)cc1` [Example 4, 1-(3-(tert-Butyl)-1-(p-tolyl)-1H-pyrazol-5-yl)-3-(4-((2-((5,6-dimethylpyrazin-2-yl)amino)pyridin-4-yl)methoxy)naphthalen-1-yl)urea], for which the IC50 was 0.022 µM in test [1], above 4.96 µM on GSK 3α enzyme isoform and 0.0254 µM in test [2]. The EC50 in test [3] is 0.0256 µM.

Turning to `Cc1ccc(-n2nc(C(C)(C)C)cc2NC(=O)Nc2ccc(OCc3ccnc(Nc4cnc(CN)cn4)c3)c3ccccc23)cc1` [Example 5, 1-(4-((2-((5-(Aminomethyl)pyrazin-2-yl)amino)pyridin-4-yl)methoxy)naphthalen-1-yl)-3-(3-(tert-butyl)-1-(p-tolyl)-1H-pyrazol-5-yl)urea], the IC50 in test [1] is below 0.00048 µM; on GSK 3α enzyme isoform, 2.77 µM; in test [2] it was 0.0024 µM. In test [3], the EC50 is 0.0028 µM.

`CC(=O)NCc1cnc(Nc2cc(COc3ccc(NC(=O)Nc4cc(C(C)(C)C)nn4-c4ccc(C)cc4)c4ccccc34)ccn2)cn1` [Example 6, N-((5-((4-(((4-(3-(3-(tert-butyl)-1-(p-tolyl)-1H-pyrazol-5-yl)ureido)naphthalen-1-yl)oxy)methyl)pyridin-2-yl)amino)pyrazin-2-yl)methyl)acetamide]: the IC50 came out at 0.003 µM in test [1], 0.922 µM on GSK 3α enzyme isoform and 0.0907 µM in test [2]. Further, in test [3], the EC50 was determined as 0.0085 µM.

`CNC(=O)c1cnc(Nc2cc(COc3ccc(NC(=O)Nc4cc(C(C)(C)C)nn4-c4ccc(C)cc4)c4ccccc34)ccn2)cn1` [Example 7, 5-((4-(((4-(3-(3-(tert-Butyl)-1-(p-tolyl)-1H-pyrazol-5-yl)ureido)naphthalen-1-yl)oxy)methyl)pyridin-2-yl)amino)-N-methylpyrazine-2-carboxamide]: the figures for the 50% inhibitory concentration (IC50) (in test [1]; at GSK 3α enzyme isoform; in test [2]) were 0.015 µM, above 15.2 µM and 0.0167 µM, respectively. The EC50 in test [3] amounted to 0.0107 µM.

Consider `Cc1ccc(-n2nc(C(C)(C)C)cc2NC(=O)Nc2ccc(OCc3ccnc(Nc4cncc(CC(=O)N(C)C)n4)c3)c3ccccc23)cc1` [Example 8, 2-(6-((4-(((4-(3-(3-(tert-butyl)-1-(p-tolyl)-1H-pyrazol-5-yl)ureido)naphthalen-1-yl)oxy)methyl)pyridin-2-yl)amino)pyrazin-2-yl)-N,N-dimethylacetamide], for which the half-inhibitory concentration (IC50) in test [1] is 0.001 µM; at GSK 3α enzyme isoform, 0.138 µM; in test [2] it was 0.0103 µM. The EC50 in test [3] was 0.0039 µM.

For `Cc1ccc(-n2nc(C(C)(C)C)cc2NC(=O)Nc2ccc(OCc3ccnc(Nc4cnc(C(=O)N(C)C)cn4)c3)c3ccccc23)cc1` [Example 9, 5-((4-(((4-(3-(3-(tert-Butyl)-1-(p-tolyl)-1H-pyrazol-5-yl)ureido)naphthalen-1-yl)oxy)methyl)pyridin-2-yl)amino)-N,N-dimethylpyrazine-2-carboxamide], the figures for the IC50 (in test [1]; on GSK 3α enzyme isoform; in test [2]) were 0.134 µM, 3.32 µM and 0.0088 µM, respectively. Besides, in test [3], the EC50 was found to be 0.0013 µM.

Take `Cc1ccc(-n2nc(C(C)(C)C)cc2NC(=O)Nc2ccc(OCc3ccnc(Nc4cnc(CO)cn4)c3)c3ccccc23)cc1` [Example 10, 1-(3-(tert-Butyl)-1-(p-tolyl)-1H-pyrazol-5-yl)-3-(4-((2-((5-(hydroxymethyl)pyrazin-2-yl)amino)pyridin-4-yl)methoxy)naphthalen-1-yl)urea]: the IC50 in test [1] was 0.008 µM; on GSK 3α enzyme isoform it was above 15.9 µM; in test [2] it was 0.0153 µM. Also, in test [3], the EC50 was 0.0028 µM.

With `Cc1ccc(-n2nc(C(C)(C)C)cc2NC(=O)Nc2ccc(OCc3ccnc(Nc4cncc(C#N)n4)c3)c3ccccc23)cc1` [Example 11], the IC50 is 0.052 µM in test [1], above 16 µM at GSK 3α enzyme isoform and 0.0125 µM in test [2]. Also, the EC50 in test [3] amounted to 0.0023 µM.

As to `COc1ccc(-n2nc(C(C)(C)C)cc2NC(=O)Nc2ccc(OCc3ccnc(Nc4cnccn4)c3)c3ccccc23)cn1` [Example 12], the IC50 in test [1] is 0.014 µM; on GSK 3α enzyme isoform it was above 16.2 µM; in test [2] it was 0.0093 µM. For the same molecule, in test [3], the EC50 worked out at 0.0168 µM.

For `Cc1ccc(-n2nc(C(C)(C)C)cc2NC(=O)Nc2ccc(OCc3ccnc(Nc4cnccn4)c3)c3ccccc23)s1` [Example 13], the IC50 in test [1] is 0.009 µM; at GSK 3α enzyme isoform it was above 14.7 µM; in test [2] it was 0.0078 µM. The EC50 in test [3] was 0.0182 µM.

With `Cc1ccc(-n2nc(C(C)(C)C)cc2NC(=O)Nc2ccc(OCc3ccnc(Nc4cncc(N(C)C)n4)c3)c3ccccc23)cc1` [Example 14], the IC50 in test [1] was 0.012 µM; on GSK 3α enzyme isoform, 3.37 µM; in test [2], 0.0055 µM. Besides, in test [3], the EC50 is 0.0029 µM.

With `Cc1ccc(-n2nc(C(C)(C)C)cc2NC(=O)Nc2ccc(OCc3ccnc(Nc4cncc(C5CC5)n4)c3)c3ccccc23)cc1` [Example 15], the 50% inhibitory concentration (IC50) in test [1] worked out at 0.096 µM; on GSK 3α enzyme isoform, 3.65 µM; in test [2], 0.0019 µM. Moreover, the EC50 in test [3] was 0.0021 µM.

Turning to `Cc1ccc(-n2nc(C(C)(C)C)cc2NC(=O)Nc2ccc(OCc3ccnc(Nc4cnc(C5CC5)cn4)c3)c3ccccc23)cc1` [Example 16], the figures for the IC50 (in test [1]; on GSK 3α enzyme isoform; in test [2]) were 0.087 µM, above 15.7 µM and 0.0896 µM, respectively. Moreover, the EC50 in test [3] was 0.144 µM.

With `Cc1ccc(-n2nc(C(C)(C)C)cc2NC(=O)Nc2ccc(OCc3ccnc(Nc4cnc(C(=O)NCCN5CCOCC5)cn4)c3)c3ccccc23)cc1` [Example 17], the IC50 was found to be 0.008 µM in test [1], 2.82 µM on GSK 3α enzyme isoform and 0.0165 µM in test [2]. Further, the EC50 in test [3] was 0.0127 µM.

For the molecule `COc1cncc(Nc2cc(COc3ccc(NC(=O)Nc4cc(C(C)(C)C)nn4-c4ccc(C)cc4)c4ccccc34)ccn2)n1` [Example 18], the figures for the IC50 (in test [1]; on GSK 3α enzyme isoform; in test [2]) were 0.013 µM, 9.17 µM and 0.0021 µM, respectively. Further, in test [3], the EC50 came to 0.0026 µM.

Turning to `Cc1ccc(-n2nc(C(C)(C)C)cc2NC(=O)Nc2ccc(OCc3ccnc(Nc4cnc(C)cn4)c3)c3ccccc23)cc1` [Example 19], the IC50 in test [1] was 0.013 µM; at GSK 3α enzyme isoform it was above 16.3 µM; in test [2], 0.0014 µM. The EC50 in test [3] was found to be 0.0132 µM.

Take `Cc1ccc(-n2nc(C(C)(C)C)cc2NC(=O)Nc2ccc(OCc3ccnc(Nc4cncc(C)n4)c3)c3ccccc23)cc1` [Example 20]: the IC50 is 0.015 µM in test [1], 9.04 µM at GSK 3α enzyme isoform and 0.0013 µM in test [2]. Further, in test [3], the EC50 amounted to 0.0013 µM.

In the case of `Cc1ccc(-n2nc(C(C)(C)C)cc2NC(=O)Nc2ccc(OCc3ccnc(Nc4cncc(CO)n4)c3)c3ccccc23)cc1` [Example 21], the values for the IC50 (in test [1]; on GSK 3α enzyme isoform; in test [2]) were 0.005 µM, 1.58 µM and 0.0079 µM, respectively. Moreover, the EC50 in test [3] amounted to 0.0006 µM.

`COc1ccc(-n2nc(C(C)(C)C)cc2NC(=O)Nc2ccc(OCc3ccnc(Nc4cncc(C5CC5)n4)c3)c3ccccc23)cc1` [Example 22]: the half-maximal inhibitory concentration (IC50) in test [1] came out at 0.022 µM; on GSK 3α enzyme isoform, 1.71 µM; in test [2], 0.0016 µM. Moreover, in test [3], the EC50 stood at 0.0021 µM.

As for `COc1ccc(-n2nc(C(C)(C)C)cc2NC(=O)Nc2ccc(OCc3ccnc(Nc4cnc(CO)cn4)c3)c3ccccc23)cc1` [Example 23], the IC50 in test [1] is 0.004 µM; at GSK 3α enzyme isoform, 0.626 µM; in test [2] it was 0.0062 µM. Moreover, the EC50 in test [3] is 0.0031 µM.

In the case of `Cc1ccc(-n2nc(C(C)(C)C)cc2NC(=O)Nc2ccc(OCc3ccnc(Nc4cncc(C5CC5)n4)c3)c3ccccc23)s1` [Example 24], the 50% inhibitory concentration (IC50) in test [1] is 0.038 µM; at GSK 3α enzyme isoform, 1.13 µM; in test [2], 0.0045 µM. Also, the EC50 in test [3] was 0.0031 µM.
